Results published in the supplement of paper PMC10307832.

Tests used:
Experiment in all cases: relative viability (nuclei count vs DMSO), 5 days (fraction); higher = more cells survive
[1] = compound: Cc1ccc2nc(NCCN)c3ncc(C)n3c2c1 + CS(=O)(=O)CCNCc1ccc(-c2ccc3ncnc(Nc4ccc(OCc5cccc(F)c5)c(Cl)c4)c3c2)o1 [Lapatinib] (partner 2 µM)
In short: (§1)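 One day after seeding in 1536-well plates, lung cancer cell lines were dosed by pin tool. Dosing was either single-drug or a fixed anchor-drug dose plus five library-drug doses (not always all listed) in √10 steps. After 5 days, nuclei were stained in one fix-and-stain step and counted on 4× images, and relative viability is the nuclei count of treated wells over that of vehicle wells, given as the median of duplicate plates.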

Salubrinal + Tozasertib = compound: O=C(/C=C/c1ccccc1)NC(NC(=S)Nc1cccc2cccnc12)C(Cl)(Cl)Cl [Salubrinal] + Cc1cc(Nc2cc(N3CCN(C)CC3)nc(Sc3ccc(NC(=O)C4CC4)cc3)n2)n[nH]1 [Tozasertib] (partner 0.1 µM)
In short: as §1

Salubrinal + Alpelisib = compound: O=C(/C=C/c1ccccc1)NC(NC(=S)Nc1cccc2cccnc12)C(Cl)(Cl)Cl [Salubrinal] + Cc1nc(NC(=O)N2CCC[C@H]2C(N)=O)sc1-c1ccnc(C(C)(C)C(F)(F)F)c1 [Alpelisib] (partner 2 µM)
In short: as §1

Salubrinal + Olaparib = compound: O=C(/C=C/c1ccccc1)NC(NC(=S)Nc1cccc2cccnc12)C(Cl)(Cl)Cl [Salubrinal] + O=C(c1cc(Cc2n[nH]c(=O)c3ccccc23)ccc1F)N1CCN(C(=O)C2CC2)CC1 [Olaparib] (partner 8 µM)
In short: as §1

Row | Cell Line | relative viability ([1]; first compound 0.04 µM) | relative viability ([1]; first compound 0.1265 µM) | relative viability ([1]; first compound 0.4 µM) | relative viability ([1]; first compound 1.265 µM) | relative viability ([1]; first compound 4 µM) | relative viability (Salubrinal + Tozasertib; first compound 0.08 µM) | relative viability (Salubrinal + Tozasertib; first compound 0.253 µM) | relative viability (Salubrinal + Tozasertib; first compound 0.8 µM) | relative viability (Salubrinal + Tozasertib; first compound 2.53 µM) | relative viability (Salubrinal + Tozasertib; first compound 8 µM) | relative viability (Salubrinal + Alpelisib; first compound 0.08 µM) | relative viability (Salubrinal + Alpelisib; first compound 0.253 µM) | relative viability (Salubrinal + Alpelisib; first compound 0.8 µM) | relative viability (Salubrinal + Alpelisib; first compound 2.53 µM) | relative viability (Salubrinal + Alpelisib; first compound 8 µM) | relative viability (Salubrinal + Olaparib; first compound 0.08 µM) | relative viability (Salubrinal + Olaparib; first compound 0.253 µM) | relative viability (Salubrinal + Olaparib; first compound 0.8 µM) | relative viability (Salubrinal + Olaparib; first compound 2.53 µM) | relative viability (Salubrinal + Olaparib; first compound 8 µM)
1 | 201T | 1.07 | 1.03 | 0.989 | 1.17 | 0.98 | 0.873 | 0.837 | 0.933 | 0.98 | 0.967 | 1.07 | 0.999 | 1.05 | 1.02 | 1.01 | 0.866 | 0.61 | 0.861 | 0.809 | 0.824
2 | A549 | 1.23 | 0.941 | 0.918 | 1 | 0.83 | – | – | – | – | – | 0.726 | 0.806 | 0.755 | 0.76 | 0.616 | 0.226 | 0.344 | 0.438 | 0.31 | 0.287
3 | A-427 | 1.13 | 1.06 | 1.02 | 0.957 | 1.06 | 0.22 | 0.226 | 0.227 | 0.227 | 0.21 | 1.06 | 1.16 | 1.17 | 1.16 | 1.15 | 0.751 | 0.7 | 0.793 | 0.682 | 0.744
4 | ABC-1 | 1.18 | 1.16 | 1.12 | 0.783 | 1.03 | 0.168 | 0.185 | 0.194 | 0.183 | 0.206 | 1 | 0.952 | 1.2 | 1 | 1.12 | 0.831 | 0.67 | 0.741 | 0.633 | 0.8
5 | BEN | 0.894 | 0.6 | 0.827 | 0.77 | 0.709 | – | 0.689 | 0.718 | 0.479 | 0.471 | 1.23 | 0.82 | 1.3 | 1 | 1.03 | 1.33 | 0.935 | 1.16 | 1.04 | 0.943
6 | CAL-12T | 0.892 | 0.714 | 0.674 | 0.553 | 0.502 | 0.32 | 0.279 | 0.323 | 0.241 | 0.241 | 1.6 | 0.712 | 1.31 | 1.17 | 1.02 | 0.7 | 0.711 | 0.751 | 0.725 | 0.648
7 | COR-L23 | 1.27 | 0.874 | 0.924 | 0.837 | 0.853 | 0.191 | 0.185 | 0.194 | 0.168 | 0.145 | 0.908 | 0.792 | 0.875 | 0.965 | 0.631 | 0.392 | 0.323 | 0.355 | 0.315 | 0.325
8 | COR-L 105 | 0.451 | 0.351 | 0.352 | 0.399 | 0.339 | 0.665 | 0.37 | 0.312 | 0.335 | 0.328 | 1.01 | 0.906 | 1.04 | 1.06 | 0.831 | 0.617 | 0.732 | 0.592 | 0.662 | 0.587
9 | Calu-6 | 1.09 | 1.03 | 1.07 | 1.07 | 0.737 | – | – | – | – | – | 0.94 | 0.936 | 1.07 | 1.04 | 0.942 | 0.632 | 0.522 | 0.723 | 0.591 | 0.453
10 | ChaGo-K-1 | – | – | – | – | – | 0.257 | 0.264 | 0.231 | 0.216 | 0.216 | – | – | – | – | – | 0.46 | 0.404 | 0.449 | 0.395 | 0.383
11 | EBC-1 | 0.207 | 0.201 | 0.233 | 0.179 | 0.191 | – | – | – | – | – | 0.869 | 0.952 | 0.976 | 0.811 | 0.736 | 0.787 | 0.616 | 0.73 | 0.604 | 0.585
12 | EKVX | 0.232 | 0.197 | 0.216 | 0.283 | 0.213 | 0.437 | 0.387 | 0.536 | 0.382 | 0.321 | 1.14 | 0.729 | 1.01 | 0.887 | 0.88 | 0.986 | 0.816 | 0.884 | 0.852 | 0.815
13 | EMC-BAC-2 | 0.915 | 0.875 | 0.847 | 0.918 | 0.851 | 0.239 | 0.289 | 0.313 | 0.255 | 0.261 | 0.802 | 0.709 | 0.786 | 0.82 | 0.702 | 0.496 | 0.513 | 0.525 | 0.466 | 0.525
14 | EPLC-272H | 1.04 | 0.981 | 0.777 | 0.829 | 0.977 | 0.426 | 0.249 | 0.258 | 0.243 | 0.242 | 1.01 | 0.798 | 1.07 | 0.996 | 0.787 | 0.913 | – | 0.977 | 0.596 | 0.452
15 | H3255 | 0.275 | 0.268 | 0.398 | 0.252 | 0.283 | 0.502 | 0.65 | 0.802 | 0.551 | 0.477 | 0.913 | 0.676 | 0.762 | 0.693 | 0.769 | 0.618 | 0.62 | 0.595 | 0.526 | 0.569
